Laboratory results taken from the NIST ThermoML archive (doi:10.1016/j.jct.2011.06.019).

Tests used:
[1] = molar heat capacity at constant pressure; conditions: Liquid, Flow calorimetry
[2] = molar heat capacity at constant pressure; xn = mol fraction of the nth substance listed; conditions: 313.15 K, Liquid, Flow calorimetry

CCO [ethanol]
molar heat capacity at constant pressure [J/K/mol], [1]
Conditions	100 kPa	5000 kPa	10000 kPa	15000 kPa	20000 kPa
273.15 K	103.5	103.1	102.1	101.7	100.7
293.15 K	111.2	110.2	109	108.1	107.4
313.15 K	119.2	118	116.8	115.5	114.9
333.15 K	130	129.1	127.7	126	124.7

CCO [ethanol] + CCCCCCC
[2], x2 = 0
Conditions	molar heat capacity at constant pressure [J/K/mol]
100 kPa	119.2
5000 kPa	118
10000 kPa	116.8
15000 kPa	115.5
20000 kPa	114.9

CCO [ethanol] + Cc1ccccc1
[2], x2 = 0
Conditions	molar heat capacity at constant pressure [J/K/mol]
100 kPa	119.2
5000 kPa	118
10000 kPa	116.8
15000 kPa	115.5
20000 kPa	114.9

CCCCCCC [heptane]
molar heat capacity at constant pressure [J/K/mol], [1]
Conditions	100 kPa	5000 kPa	10000 kPa	15000 kPa	20000 kPa
273.15 K	216.2	213.1	210.9	208.1	207.2
293.15 K	224.1	223	218.2	216.8	214.4
313.15 K	233.8	230.3	226.2	223.1	221.6
333.15 K	241.9	238.7	235	232	229.3

CCCCCCC [heptane] + CCO
molar heat capacity at constant pressure [J/K/mol], [2]
Conditions	x1 = 0.1	x1 = 0.2001	x1 = 0.3	x1 = 0.4001	x1 = 0.5001	x1 = 0.6	x1 = 0.6999	x1 = 0.7999	x1 = 0.9	x1 = 1
100 kPa	134.2	149.4	163.6	176.8	190.9	202.9	215.3	224.9	234.8	233.8
5000 kPa	132.5	147.1	160.8	174.2	187.6	200	211.9	221.4	230.4	230.3
10000 kPa	130.7	146.1	158.6	171.6	185	196.7	209	218.7	226.9	226.2
15000 kPa	129.5	143.6	156.7	169.4	182.5	194.8	205.9	215.9	223.8	223.1
20000 kPa	128.4	142.4	155.3	168.3	180.9	193.1	204	213.3	222.6	221.6

Cc1ccccc1 [toluene] + CCO
molar heat capacity at constant pressure [J/K/mol], [2]
Conditions	x1 = 0.1003	x1 = 0.2007	x1 = 0.2999	x1 = 0.4002	x1 = 0.5	x1 = 0.6001	x1 = 0.7	x1 = 0.8	x1 = 0.9001	x1 = 1
100 kPa	130.1	138.3	146.1	153.2	159.1	163.7	167.7	169.5	168.5	163.5
5000 kPa	128.7	136.6	144.2	151.3	157.1	162	165.3	167.5	167.3	161.3
10000 kPa	127.3	135.5	143.2	150	155.7	160.2	164.1	166.3	165.9	159.9
15000 kPa	126.1	134.4	141.9	148.5	154.3	158.6	162.6	164.9	165.2	158.9
20000 kPa	125.1	133.6	140.9	147.5	153.4	158.1	161.8	164	163.6	157.8
